{"source": "ChEMBL document CHEMBL1138928", "about": "“Toward orthopoxvirus countermeasures: a novel heteromorphic nucleoside of unusual structure” (J Med Chem, 2006)", "test_system": "Vaccinia virus", "experiment": "Antiviral activity against vaccinia virus in HFF cells by cytopathogenic effect assay", "type": "functional, organism-based", "conditions": "Orthopoxvirus vaccinia"}
{"smiles": "N#CC1=C(N)OC2=C(C(=O)CCC2)C1c1cn([C@H]2C[C@@H](O)[C@@H](CO)O2)c(=O)[nH]c1=O", "note": "(some centres not stated)", "values": [{"measurement": "EC50", "value": 600, "unit": "nM"}]}
{"smiles": "Nc1ccn(C[C@@H](CO)OCP(=O)(O)O)c(=O)n1", "note": "[CIDOFOVIR]", "values": [{"measurement": "EC50", "value": 3200, "unit": "nM"}]}
